Calls of active or inactive are those of the source.
Experiments:
Assay type in all cases: functional, cell-based
MOLT-3 = experiment: Cytotoxicity against human MOLT3 cells at 50 ug/mL after 72 hrs by XTT assay
A549 = experiment: Cytotoxicity against human A549 cells at 50 ug/mL after 72 hrs by MTT assay
HepG2 = experiment: Cytotoxicity against human HepG2 cells at 50 ug/mL after 72 hrs by MTT assay
HuCC-A1 = experiment: Cytotoxicity against human HuCCa1 cells at 50 ug/mL after 72 hrs by MTT assay

Measured: Activity

CC1(C)C[C@]2(C)COC(=O)[C@H]3OC(=O)[C@]4(O)CC[C@@H]1C324 (some centres undefined)
inactive: all assays above
